Several values for one entry are separate records, joined by “and”; a condition that tells them apart may be missing. Equal entries are not always repeated.
Experiments:
[1] = target: T1, cocaine binding site of the human dopamine transporter (Homo sapiens, UniProt Q01959); experiment: [3H]CFT binding at the cocaine binding site, hDAT cells
T1 construct: expressed in transfected cells

Male Long-Evans rats = experiment: Inhibition of nicotine self-administration in male Long-Evans rats; type: in vivo, rat; conditions: 10, 20 and 30 mg/kg i.p. 15 minutes before 60 minute session; nicotine 30 μg/kg/infusion; FIG. 1
Procedure: Male Long-Evans rats were trained to self-administer nicotine on a fixed ratio schedule of reinforcement, as described by Corrigall et al., Psychopharmacology, Vol. 104, No. 2, pp. 171-176 (1991) and Corrigall et al., Psychopharmacology, Vol. 107, Nos. 2-3, pp. 285-289 (1992). In brief, male Long-Evans rats were food deprived for a short period of time (24-48 hours) and trained to press a lever in an operant responding chamber on an FR-1 schedule of food reinforcement. Once trained, each rat was surgically prepared with a chronic intravenous catheter implanted into the jugular vein. The rats were allowed 1 week to recover from surgery.
After 1 week, nicotine self-administration studies were initiated on an FR-1 with a 60 second signaled time-out following each infusion. During time-out, responding on the lever had no scheduled consequence. Nicotine self-administration sessions were 60 minutes in duration. Each nicotine infusion contained 30 μg of nicotine/kg rat and were delivered in a volume of 54 μl over an infusion duration of 0.3 seconds. 15 minutes before the self-administration sessions, the rats were pre-treated intraperitoneally with (R)-(+)-α,α-diphenyl-2-pyrrolidinemethanol at doses of 10, 20 and 30 mg/kg.

[2] = test system: alcohol-preferring (P) line of rats; experiment: Inhibition of ethanol intake in alcohol-preferring rats; type: in vivo, rat; conditions: 30 mg/kg i.p.
Procedure: The effect of systemic administration of (R)-(+)-α,α-diphenyl-2-pyrrolidinemethanol on ethanol intake in the alcohol-preferring (P) line of rats was performed as previously described by Panocka et al., Pharm. Biochem. and Behavior, 1995, 52, 2, 255-259, and Murphy et al., Alcohol, 1985, 2, 349-352. In brief, (R)-(+)-α,α-diphenyl-2-pyrrolidinemethanol (30 mg/kg i.p.) was tested in female P rats (n=8) given daily 1 hour scheduled access to a 10% (v/v) ethanol solution. A within-subject design was used where (R)-(+)-α,α-diphenyl-2-pyrrolidinemethanol treatments were tested once per week. Baseline ethanol drinking consisted of the mean of the 3 days prior to testing in which saline injections were given. (R)-(+)-α,α-diphenyl-2-pyrrolidinemethanol or saline, administered i.p. in 1 ml/kg volumes, were injected 10-15 minutes prior to ethanol access. Twenty-four hour water and daily body weights were recorded to assess non-specific drug effects. Results were analyzed using paired t-tests with baseline and test day values serving as the independent variables. Ethanol intake was recorded as amount of solution consumed (mls).

[3] = target: T2, human dopamine transporter (Homo sapiens, UniProt Q01959); experiment: [3H]Dopamine uptake inhibition, hDAT cells; type: cell-based; conditions: for Uptake to Binding Ratio (Kiuptake/Kibinding): ratio of Kiuptake to Kibinding at hDAT
T2 construct: expressed in transfected cells

[4] = individual rats P31-P40 (b249-b258 in order)

T1 sequence (Q01959 whole entry): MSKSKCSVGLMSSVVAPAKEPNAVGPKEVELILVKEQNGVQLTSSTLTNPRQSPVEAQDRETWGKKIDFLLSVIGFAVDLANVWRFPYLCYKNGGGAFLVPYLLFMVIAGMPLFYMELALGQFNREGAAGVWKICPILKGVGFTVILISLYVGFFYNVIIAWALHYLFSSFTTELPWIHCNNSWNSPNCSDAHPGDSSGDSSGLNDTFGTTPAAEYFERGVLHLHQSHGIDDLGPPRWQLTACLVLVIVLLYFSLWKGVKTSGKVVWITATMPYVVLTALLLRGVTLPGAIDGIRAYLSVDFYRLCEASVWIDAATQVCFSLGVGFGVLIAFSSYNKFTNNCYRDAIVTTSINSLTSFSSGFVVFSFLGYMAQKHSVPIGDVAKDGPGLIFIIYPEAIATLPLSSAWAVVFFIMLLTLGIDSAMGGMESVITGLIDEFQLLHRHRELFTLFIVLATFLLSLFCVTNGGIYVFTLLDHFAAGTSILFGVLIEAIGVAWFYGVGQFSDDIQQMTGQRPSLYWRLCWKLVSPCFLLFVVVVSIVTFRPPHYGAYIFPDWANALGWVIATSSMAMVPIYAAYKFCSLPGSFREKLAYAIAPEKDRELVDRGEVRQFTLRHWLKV
T2 sequence (Q01959 whole entry): as above

| Compound | Ki [1] [nM] | nicotine self-administration (Male Long-Evans rats) | reduction of ethanol consumption ([2]; 1 hour access period, vs saline baseline, p<0.05) | effect on water consumption ([2]; 24 hours following administration) | Post-drug Water 24 hr ([2]; Means of rats P31-P40) [mL] | Post-drug Weight ([2]; Means of rats P31-P40) [g] | Test Day Ethanol 1 hr (g/kg) ([2]; Means of rats P31-P40) | Test Day Ethanol 1 hr (ml) ([2]; Means of rats P31-P40) [mL] | effect on body weights ([2]; P rats) | 1 hour ethanol consumption ([2]; female P rats, 10% (v/v) ethanol, mean ± S.E.M., saline baseline 8.2±0.8 mls, p<0.05) [mls] | 24 hour water intake ([2]; female P rats, mean ± S.E.M., saline baseline 28±2.2 mls) [mls] | 24 hour body weights ([2]; female P rats, mean ± S.E.M., saline baseline 310±6.1 g) [g] | Post-drug Water 24 hr [2, 4] | Post-drug Weight [2, 4] | Test Day Ethanol 1 hr (g/kg) [2, 4] | Test Day Ethanol 1 hr (ml) [2, 4] | Ki [3] [nM] | Uptake to Binding Ratio (Kiuptake/Kibinding) [3] |
| --- | --- | --- | --- | --- | --- | --- | --- | --- | --- | --- | --- | --- | --- | --- | --- | --- | --- | --- |
| OC(c1ccccc1)(c1ccccc1)[C@H]1CCCN1 [Compound 1, (R)-(+)-α,α-diphenyl-2-pyrrolidinemethanol] | 40 | dose-dependently attenuated | approximately 45% | no effect | 25 | 300 | 1.2 | 4.5 | not altered | 4.5±1.2 | 25±2.1 | 300 ± 6.2 | 23 mL and 26 mL and 28 mL and 32 mL and 18 mL and 12 mL | 329 g and 291 g and 294 g and 305 g and 290 g and 297 g and 312 g and 263 g and 323 g | 1.9 g/kg and 0.3 g/kg and 0.5 g/kg and 2.4 g/kg and 1.0 g/kg and 0.8 g/kg and 0 g/kg | 8 mL and 7 mL and 1 mL and 2 mL and 10 mL and 9 mL and 4 mL and 3 mL and 0 mL | 170 | 4.25 |
| OC(c1ccccc1)(c1ccccc1)[C@@H]1CCCN1 [Compound 2, (S)-(-)-α,α-diphenyl-2-pyrrolidinemethanol] | 400 | – | – | – | – | – | – | – | – | – | – | – | – | – | – | – | 1650 | 4.12 |
| CCCN1CCC[C@H]1C(O)(c1ccccc1)c1ccccc1 [Compound 3, (S)-(-)-1-propyl-α,α-diphenyl-2-pyrrolidinemethanol] | 3300 | – | – | – | – | – | – | – | – | – | – | – | – | – | – | – | 10300 | 3.12 |
| Cc1cc(C(O)(c2ccc(F)c(C)c2)[C@@H]2CCCN2)ccc1F [Compound 4, (S)-α,α-Bis(3-methyl-4-fluorophenyl)-2-pyrrolidinemethanol] | 260 | – | – | – | – | – | – | – | – | – | – | – | – | – | – | – | 440 | 1.69 |

Reference: patent US5925666A, “Pharmaceutical compositions and methods for treating compulsive disorders using pyrrolidine derivatives” (Guilford Pharmaceuticals Inc., priority 1997, dated 1999)
